Laboratory results taken from US9709558B2, “Compound arrays for sample profiling” (priority 2009, dated 2017).

How the values were obtained:
[1] = system: influenza A/PR/8/34; type: in vivo, BALB/c mice; details: lethal challenge with influenza A/PR/8/34
[2] = system: whole virus; test: Serum IgG ELISA against whole virus in immunized mice; type: in vivo; details: archived murine serum samples
[3] = system: KLH; test: Anti-KLH serum IgG ELISA in immunized mice; type: in vivo; details: archived murine serum samples

Substance: keyhole limpet hemocyanin [KLH]
- outcome following lethal challenge [1]: no benefit over naives
- average IgG titer against whole virus [2]: 800
- average anti-KLH IgG titer [3]: 819,000
